ChEMBL document CHEMBL5131391, “One-pot three-component synthesis of novel pyrazolo[3,4-b]pyridines as potent antileukemic agents” (Eur J Med Chem, 2022)
Active and inactive are the calls of the source. The calls are words filed in the database; no cut-off is given here.

Key:
HCT-116 [1] = test: Cytostatic activity in human HCT-116 cells assessed as tumor growth inhibition measured after 48 hrs by NCI protocol based SRB assay; assay type: functional
OVCAR-5 = test: Antiproliferative activity against human OVCAR-5 cells assessed as growth inhibition measured after 48 hrs by NCI protocol based SRB assay; assay type: functional
UACC-257 = test: Cytostatic activity in human UACC-257 cells assessed as tumor growth inhibition measured after 48 hrs by NCI protocol based SRB assay; assay type: functional
PC-3 [2] = test: Antiproliferative activity against human PC-3 cells assessed as growth inhibition measured after 48 hrs by NCI protocol based SRB assay; assay type: functional
BT-549 = test: Cytostatic activity in human BT-549 cells assessed as tumor growth inhibition measured after 48 hrs by NCI protocol based SRB assay; assay type: functional
Malme-3M = test: Antiproliferative activity against human Malme-3M cells assessed as growth inhibition measured after 48 hrs by NCI protocol based SRB assay; assay type: functional
RPMI-8226 = test: Cytostatic activity in human RPMI-8226 cells assessed as tumor growth inhibition measured after 48 hrs by NCI protocol based SRB assay; assay type: functional
IGROV-1 = test: Cytostatic activity in human IGROV-1 cells assessed as tumor growth inhibition measured after 48 hrs by NCI protocol based SRB assay; assay type: functional
TK-10 [3] = test: Cytostatic activity in human TK-10 cells assessed as tumor growth inhibition measured after 48 hrs by NCI protocol based SRB assay; assay type: functional
EKVX = test: Cytostatic activity in human EKVX cells assessed as tumor growth inhibition measured after 48 hrs by NCI protocol based SRB assay; assay type: functional
PC-3 [4] = test: Cytostatic activity in human PC-3 cells assessed as tumor growth inhibition measured after 48 hrs by NCI protocol based SRB assay; assay type: functional
SW-620 = test: Antiproliferative activity against human SW-620 cells assessed as growth inhibition measured after 48 hrs by NCI protocol based SRB assay; assay type: functional
HOP-62 = test: Cytostatic activity in human HOP-62 cells assessed as tumor growth inhibition measured after 48 hrs by NCI protocol based SRB assay; assay type: functional
SK-MEL-28 = test: Antiproliferative activity against human SK-MEL-28 cells assessed as growth inhibition measured after 48 hrs by NCI protocol based SRB assay; assay type: functional
SR = test: Antiproliferative activity against human SR cells assessed as growth inhibition measured after 48 hrs by NCI protocol based SRB assay; assay type: functional
A498 = test: Antiproliferative activity against human A498 cells assessed as growth inhibition measured after 48 hrs by NCI protocol based SRB assay; assay type: functional
SN12C = test: Antiproliferative activity against human SN12C cells assessed as growth inhibition measured after 48 hrs by NCI protocol based SRB assay; assay type: functional
NCI/ADR-RES [5] = test: Antiproliferative activity against human NCl/ADR-RES cells assessed as growth inhibition measured after 48 hrs by NCI protocol based SRB assay; assay type: functional
HCT-116 [6] = test: Antiproliferative activity against human HCT-116 cells assessed as growth inhibition measured after 48 hrs by NCI protocol based SRB assay; assay type: functional
786-0 = test: Cytostatic activity in human 786-0 cells assessed as tumor growth inhibition measured after 48 hrs by NCI protocol based SRB assay; assay type: functional
HCC 2998 = test: Cytostatic activity in human HCC 2998 cells assessed as tumor growth inhibition measured after 48 hrs by NCI protocol based SRB assay; assay type: functional
SF-539 [7] = test: Cytostatic activity in human SF-539 cells assessed as tumor growth inhibition measured after 48 hrs by NCI protocol based SRB assay; assay type: functional
SF-539 [8] = test: Antiproliferative activity against human SF-539 cells assessed as growth inhibition measured after 48 hrs by NCI protocol based SRB assay; assay type: functional
NCI-H322M [9] = test: Cytostatic activity in human NCI-H322M cells assessed as tumor growth inhibition measured after 48 hrs by NCI protocol based SRB assay; assay type: functional
NCI-H522 = test: Antiproliferative activity against human NCI-H522 cells assessed as growth inhibition measured after 48 hrs by NCI protocol based SRB assay; assay type: functional
HCT-15 = test: Antiproliferative activity against human HCT-15 cells assessed as growth inhibition measured after 48 hrs by NCI protocol based SRB assay; assay type: functional
MDA-MB-468 = test: Cytostatic activity in human MDA-MB-468 cells assessed as tumor growth inhibition measured after 48 hrs by NCI protocol based SRB assay; assay type: functional
MCF7 = test: Antiproliferative activity against human MCF7 cells assessed as growth inhibition measured after 48 hrs by NCI protocol based SRB assay; assay type: functional
OVCAR-8 = test: Cytostatic activity in human OVCAR-8 cells assessed as tumor growth inhibition measured after 48 hrs by NCI protocol based SRB assay; assay type: functional
SF-268 = test: Antiproliferative activity against human SF-268 cells assessed as growth inhibition measured after 48 hrs by NCI protocol based SRB assay; assay type: functional
SK-MEL-5 = test: Antiproliferative activity against human SK-MEL-5 cells assessed as growth inhibition measured after 48 hrs by NCI protocol based SRB assay; assay type: functional
NCI/ADR-RES [10] = test: Cytostatic activity in human NCl/ADR-RES cells assessed as tumor growth inhibition measured after 48 hrs by NCI protocol based SRB assay; assay type: functional
NCI-H322M [11] = test: Antiproliferative activity against human NCI-H322M cells assessed as growth inhibition measured after 48 hrs by NCI protocol based SRB assay; assay type: functional
RXF 393 = test: Antiproliferative activity against human RXF 393 cells assessed as growth inhibition measured after 48 hrs by NCI protocol based SRB assay; assay type: functional
T47D = test: Antiproliferative activity against human T47D cells assessed as growth inhibition measured after 48 hrs by NCI protocol based SRB assay; assay type: functional
SF-295 = test: Antiproliferative activity against human SF-295 cells assessed as growth inhibition measured after 48 hrs by NCI protocol based SRB assay; assay type: functional
TK-10 [12] = test: Antiproliferative activity against human TK-10 cells assessed as growth inhibition measured after 48 hrs by NCI protocol based SRB assay; assay type: functional
RS4-11 [13] = test: Induction of cell cycle arrest in human RS4-11 cells assessed as accumulation of cells in G2/M phase at 1.25 to 10 uM measured after 72 hrs by PI staining based flow cytometry analysis; assay type: functional; details: dose 1.25-10 µM
RS4-11 [14] = test: Downregulation of MEIS1 protein expression in human RS4-11 cells at 5 to 20 uM measured after 24 hrs by Western blot analysis; assay type: functional, cell-based; details: dose 5-20 µM
[15] = read-out: LC50 (the source's name)

N#Cc1c(-c2ccccc2)nc2c(c(-c3ccccc3)nn2-c2ccccc2)c1-c1ccc(O)cc1
TGI (HCT-116 [1]): 7.32 µM
GI50 (OVCAR-5): 1750 nM
CC50 (OVCAR-5; [15]): 6.66 µM
TGI (UACC-257): 12.1 µM
GI50 (PC-3 [2]): 1820 nM
CC50 (PC-3 [2]; [15]): 7.86 µM
TGI (BT-549): 4.45 µM
GI50 (Malme-3M): 1620 nM
CC50 (Malme-3M; [15]): 9.06 µM
TGI (RPMI-8226): 17.9 µM
TGI (IGROV-1): 3.62 µM
TGI (TK-10 [3]): 8.19 µM
TGI (EKVX): 5.1 µM
TGI (PC-3 [4]): 3.78 µM
GI50 (SW-620): 1860 nM
CC50 (SW-620; [15]): 6.72 µM
TGI (HOP-62): 4.49 µM
GI50 (SK-MEL-28): 1580 nM
CC50 (SK-MEL-28; [15]): 5.86 µM
GI50 (SR): 2950 nM
CC50 (SR; [15]): > 100 µM
GI50 (A498): 1660 nM
CC50 (A498; [15]): 5.69 µM
GI50 (SN12C): 1640 nM
CC50 (SN12C; [15]): 5.63 µM
GI50 (NCI/ADR-RES [5]): 2270 nM
CC50 (NCI/ADR-RES [5]; [15]): 2950 nM
GI50 (HCT-116 [6]): 2630 nM
CC50 (HCT-116 [6]; [15]): 83.4 µM
TGI (786-0): 5.35 µM
TGI (HCC 2998): 3.47 µM
TGI (SF-539 [7]): 2760 nM
GI50 (SF-539 [8]): 1250 nM
CC50 (SF-539 [8]; [15]): 6.1 µM
TGI (NCI-H322M [9]): 2960 nM
GI50 (NCI-H522): 2320 nM
CC50 (NCI-H522; [15]): > 100 µM
GI50 (HCT-15): 1620 nM
CC50 (HCT-15; [15]): 8.9 µM
TGI (MDA-MB-468): 5.57 µM
GI50 (MCF7): 1860 nM
CC50 (MCF7; [15]): 90 µM
TGI (OVCAR-8): 11.7 µM
GI50 (SF-268): 2830 nM
CC50 (SF-268; [15]): 47.2 µM
GI50 (SK-MEL-5): 1750 nM
CC50 (SK-MEL-5; [15]): 5.79 µM
TGI (NCI/ADR-RES [10]): 5.62 µM
GI50 (NCI-H322M [11]): 1570 nM
CC50 (NCI-H322M [11]; [15]): 5.56 µM
GI50 (RXF 393): 1030 nM
CC50 (RXF 393; [15]): 5.37 µM
GI50 (T47D): 3.05 µM
CC50 (T47D; [15]): > 100 µM
GI50 (SF-295): 1880 nM
CC50 (SF-295; [15]): 9.8 µM
GI50 (TK-10 [12]): 2890 nM
CC50 (TK-10 [12]; [15]): > 100 µM

Cc1ccc(-c2nc3c(c(-c4ccccc4)nn3-c3ccccc3)c(-c3ccc(O)cc3)c2C#N)cc1
Activity (RS4-11 [13]): Active
Activity (RS4-11 [14]): Active
